From US20090117203A1, “KIT FOR CANCER TREATMENT AND PHARMACEUTICAL COMPOSITION FOR CANCER TREATMENT” (TMRC Co., Ltd., priority 2006, published 2009)

Assays:
human liver cancer JHH-7 = experiment: Growth suppression of human liver cancer JHH-7 transplanted in nude mice; assay type: in vivo; conditions: for tumor volume: nude mice, TM-411 3 mg/kg oral daily 20 days, 5-FU 15.2 mg/kg oral 8th to 12th day; for effect on suppression of the growth of the tumor (in words): nude mice transplanted with JHH-7, same doses as Table 2
Experimental: Fluorouracil (hereinafter, abbreviated to “5-FU”), which is a general name of that manufactured by Kyowa Hakko Kogyo Co., Ltd., was used as a chemotherapeutic agent.
A tumor cell mass of human liver cancer JHH-7 was subcutaneously transplanted in dorsal portions of 6-week-old BALB/cAJcl-nu nude mice through a trocar. When the tumor volume reached 100 to 300 mm^3, the administration was started. TM-411 was orally administered once a day at a dose of 3 mg/kg for 20 days every day. 5-FU was orally administered at a dose of 15.2 mg/kg for 5 days every day from the 8th day to the 12th day.
(§1) In a combination use group of TM-411 and 5-FU, each agent was administered at the same amount and the same administration route as those in the single administration. Tumor diameters were measured every day from the day of the start of the administration (the 1st day) to the next day of the completion of the administration (the 21st day), and effect on suppression of the growth was investigated. […] In a control group, physiological saline was administered at the same amount and the same administration route as those in the single administration of each agent.

human liver cancer HePG2 = experiment: Growth suppression of human liver cancer HePG2 transplanted in nude mice; assay type: in vivo; conditions: for tumor volume: nude mice, TM-411 1 mg/kg oral daily 20 days, ADR 5 mg/kg i.v. once on first day; for effect on suppression of the growth of the tumor (in words): nude mice transplanted with HePG2, same doses as Table 3
Experimental: Doxorubicin (hereinafter, abbreviated to “ADR”), which is a general name of that manufactured by Kyowa Hakko Kogyo Co., Ltd., was used as a chemotherapeutic agent.
About 2×2×2 mm of a tumor cell mass of human liver cancer HePG2 was subcutaneously transplanted in dorsal portions of 6-week-old BALB/cAJcl-nu nude mice through a trocar. The administration was started on the day (defined as the first day) two days after the transplantation. TM-411 was orally administered at a dose of 1 mg/kg for 20 days every day from the first day. ADR was intravenously administered at a dose of 5 mg/kg once on the first day.
as §1, with “ADR,” for “5-FU,”, “the” for “the next”, “20th” for “21st”

[1] = system: human breast cancer Br-10; experiment: Growth suppression of human breast cancer Br-10 transplanted in nude mice; assay type: in vivo, mouse; conditions: for tumor volume: nude mice, TM-411 1 mg/kg oral daily 28 days, DXL 7.5 mg/kg i.v. every 4 days three times; for effect on suppression of the growth of the tumor (in words): nude mice transplanted with Br-10, same doses as Table 1
Text: Tamibarotene (hereinafter, simply abbreviated to “TM-411”) was used as a synthetic retinoid and was also used in the following other Examples. Taxotere (hereinafter, abbreviated to “DXL”), which is a general name of that manufactured by sanofi-aventis K.K., was used as a chemotherapeutic agent.
A tumor cell mass of human breast cancer Br-10 was subcutaneously transplanted in dorsal portions of 6-week-old BALB/cAJcl-nu nude mice through a trocar. When the tumor volume reached 100 to 300 mm^3, the administration was started. TM-411 was orally administered once a day at a dose of 1 mg/kg for 28 days every day. DXL was intravenously administered from the first day at a dose of 7.5 mg/kg every 4 days three times.
as §1, with “DXL,” for “5-FU,”, “29th” for “21st”

[2] = system: human multiple myeloma U266; experiment: Blood human IgE in NOG mice transplanted with human multiple myeloma U266; assay type: in vivo; conditions: for effect on blood concentration of human IgE (in words): NOG mice transplanted with U266; for Blood IgE level / Suppression ratio (blood IgE): NOG mice, 6 weeks after transplantation of U266
Experimental: Prednisolone (hereinafter, abbreviated to “PSL”), which is a general name of that manufactured by Shionogi & Co., Ltd., was used as a chemotherapeutic agent.
Seven-week-old NOD/SCID/γc^null (NOG) mice were divided into five groups of ten mice each (nine mice only in a control group), and […] cells of multiple myeloma cell line U266 were transplanted to each mouse via tail vein injection (the 0th day). The first group was used as a non-treated control group; in the second group, 1 mg/kg of TM-411 was orally administered for 28 days from the first day; in the third group, 3 mg/kg of TM-411 was orally administered for 28 days from the first day; in the fourth group, 7.5 mg/kg of PSL was orally administered for 8 days from the 21st day; and in the fifth group, 1 mg/kg of TM-411 was orally administered for 28 days from the first day and 7.5 mg/kg of PSL was orally administered in addition to the TM-411 for 8 days from the 21st day. Blood concentration of human IgE was measured 6 weeks after the transplantation of U266.

[3] = PSL 7.5 mg/kg oral 8 days from 21st day

| Compound | tumor volume (human liver cancer JHH-7; 1st day) [mm^3] | tumor volume (human liver cancer JHH-7; 4th day) [mm^3] | tumor volume (human liver cancer JHH-7; 7th day) [mm^3] | tumor volume (human liver cancer JHH-7; 11th day) [mm^3] | tumor volume (human liver cancer JHH-7; 14th day) [mm^3] | tumor volume (human liver cancer JHH-7; 18th day) [mm^3] | tumor volume (human liver cancer JHH-7; 21st day) [mm^3] | effect on suppression of the growth of the tumor (in words) (human liver cancer JHH-7) | tumor volume (human liver cancer HePG2; 3rd day) [mm^3] | tumor volume (human liver cancer HePG2; 7th day) [mm^3] | tumor volume (human liver cancer HePG2; 9th day) [mm^3] | tumor volume (human liver cancer HePG2; 11th day) [mm^3] | tumor volume (human liver cancer HePG2; 13th day) [mm^3] | tumor volume (human liver cancer HePG2; 15th day) [mm^3] | tumor volume (human liver cancer HePG2; 17th day) [mm^3] | tumor volume (human liver cancer HePG2; 20th day) [mm^3] | effect on suppression of the growth of the tumor (in words) (human liver cancer HePG2) | tumor volume ([1]; 1st day) [mm^3] | tumor volume ([1]; 5th day) [mm^3] | tumor volume ([1]; 8th day) [mm^3] | also measured |
| --- | --- | --- | --- | --- | --- | --- | --- | --- | --- | --- | --- | --- | --- | --- | --- | --- | --- | --- | --- | --- | --- |
| O=c1[nH]cc(F)c(=O)[nH]1 [5-FU, Fluorouracil] | 126.6 | 193.8 | 291.6 | 496.6 | 697.5 | 1071 | 1408 | suppressed |  |  |  |  |  |  |  |  |  |  |  |  |  |
| COc1cccc2c1C(=O)c1c(O)c3c(c(O)c1C2=O)C[C@@](O)(C(=O)CO)C[C@@H]3O[C@H]1C[C@H](N)[C@H](O)[C@H](C)O1 [ADR, Doxorubicin] |  |  |  |  |  |  |  |  | 4.0 | 18.8 | 45.5 | 180.0 | 410.5 | 650 | 842 | 1000 | suppressed the growth of the tumor |  |  |  |  |
| CC(=O)O[C@@]12CO[C@@H]1C[C@H](O)[C@@]1(C)C(=O)[C@H](O)C3=C(C)[C@@H](OC(=O)[C@H](O)[C@@H](NC(=O)OC(C)(C)C)c4ccccc4)C[C@@](O)([C@@H](OC(=O)c4ccccc4)[C@H]21)C3(C)C [DXL, Taxotere] |  |  |  |  |  |  |  |  |  |  |  |  |  |  |  |  |  | 138.9 | 149.7 | 132.6 | tumor volume ([1]; 12th day): 93.9 mm^3; tumor volume ([1]; 15th day): 76.0 mm^3; tumor volume ([1]; 19th day): 70.1 mm^3; tumor volume ([1]; 22nd day): 59.3 mm^3; tumor volume ([1]; 25th day): 58.2 mm^3; tumor volume ([1]; 29th day): 62.3 mm^3; effect on suppression of the growth of the tumor (in words) [1]: significantly suppressed |
| C[C@]12C=CC(=O)C=C1CC[C@@H]1[C@@H]2[C@@H](O)C[C@@]2(C)[C@H]1CC[C@]2(O)C(=O)CO [PSL, Prednisolone] |  |  |  |  |  |  |  |  |  |  |  |  |  |  |  |  |  |  |  |  | effect on blood concentration of human IgE (in words) [2]: decreased; Blood IgE level [2, 3]: 2204 ng/mL; Suppression ratio (blood IgE) [2, 3]: 18.2% |
| CC1(C)CCC(C)(C)c2cc(NC(=O)c3ccc(C(=O)O)cc3)ccc21 [TM-411, Tamibarotene] | 136.1 | 169.8 | 201.8 | 312.7 | 452.7 | 953.1 | 1097.4 | suppressed | 15.8 | 33.6 | 171.5 | 196 | 256 | 520 | 600 | 726 | suppressed the growth of the tumor | 136.4 | 173.6 | 234.1 | tumor volume ([1]; 12th day): 317.5 mm^3; tumor volume ([1]; 15th day): 359.5 mm^3; tumor volume ([1]; 19th day): 429.9 mm^3; tumor volume ([1]; 22nd day): 451.7 mm^3; tumor volume ([1]; 25th day): 455.7 mm^3; tumor volume ([1]; 29th day): 476.5 mm^3; effect on suppression of the growth of the tumor (in words) [1]: significantly suppressed; tumor volume (human liver cancer HePG2; 5th day): 21.4 mm^3; effect on blood concentration of human IgE (in words) [2]: decreased; Blood IgE level ([2]; TM-411 1 mg/kg oral 28 days): 2519 ng/mL; Suppression ratio (blood IgE) ([2]; TM-411 1 mg/kg oral 28 days): 6.5%; Blood IgE level ([2]; TM-411 3 mg/kg oral 28 days): 1755 ng/mL; Suppression ratio (blood IgE) ([2]; TM-411 3 mg/kg oral 28 days): 34.0% |
